These results are taken from US11690828B2, “Treatment of CNS diseases with sGC stimulators” (Cyclerion Therapeutics, Inc., priority 2016, dated 2023).

One data set relates to sGC. The data set is described as follows: cGMP neuronal cell-based assay. Particulars: rat primary hippocampal neurons; 30 μM DETA-NO; 50% of high control (10 μM Compound Y); read-out: sGC-neuron Abs EC50. How it is done: Rat primary neurons were isolated from fetuses of 18-day pregnant Sprague-Dawley females. The fetuses were collected in Hanks' balanced salt solution (HBSS) and brains were rapidly removed. The cerebral hippocampi were isolated and mechanically fragmented. Further tissue digestion was performed with 0.25% (wt/vol) trypsin solution in HBSS without Ca2+ and Mg2+ for 15 min at 37° C. After trypsination, cells were washed and resuspended in neurobasal medium supplemented with 0.5 mM L-glutamine, 12.5 uM glutamic acid, 2% B-27 and 100 U/mL penicillin, and 100 μg/mL streptomycin. Cells were plated at a density of 4×10^4 cells/well in a poly-D-lysine coated 384-well flat clear-bottom plate (Corning Cat No 354662). Cells were incubated 6-7 days at 37° C. in a humidified chamber with 5% CO2. Media was removed and cells were washed 1× with HBSS containing Ca2+ and Mg2+, and replaced with 40 uL HBSS containing 0.5 mM IBMX, and incubated for 15 minutes at 37° C. 10 uL of a 5× stock of test compounds with diethylenetriamine NONOate (DETA-NO) was added. Final concentration of DETA-NO was 30 μM. Cells were incubated for 20 min at 37° C. Medium was removed, 50 uL of ice-cold 10% acetic acid was added, and incubated for 60 minutes at 4° C. Following centrifugation at 4° C. for 5 minutes at 1000×g to pellet cell debris, the supernatant was aspirated to a clean plate and the samples were analyzed for cGMP content. cGMP concentrations were determined from each sample using LC-MS/MS.
Data were normalized to a high control using the following equation: 100*(Sample−Low Control)/(High Control−Low Control), where the low control is the average of 15 samples treated with 1% DMSO, and the high control is the average of 15 samples treated with 10 μM of the known sGC stimulator Compound Y (depicted in Example 2). Data were fit using a 4-parameter fit (log(agonist) vs. response—variable slope) using GraphPad Prism Software v.5. n=2 for all compounds. […]

Data set [1] in a line: Rat cerebrospinal fluid (CSF) pharmacokinetic properties. The format is in vivo. Particulars: male, Sprague-Dawley; for concentration at 1 h: CSF, PO 10 mg/kg in PEG400, 1 h post-dosing, read-out: CSF Conc (nM @ 1 h); for Kp uu at 1 h: PO 10 mg/kg, unbound CSF / unbound plasma. As to the method:
PK in rats was determined following oral dosing. For the oral (PO) experiments, a group of 6 male Sprague-Dawley rats with an indwelling catheter placed in the cisterna magna were used. The PO group was dosed with 3 or 10 mg/kg of a compound formulated as a solution in PEG400. PO doses were administered by oral gavage and delivered to the stomach using a syringe and gavage tube. Following oral dosage administration, the gavage tube was flushed with approximately 0.5 mL of water to ensure complete delivery of the full dose.
Plasma and CSF samples were collected as follows: samples of CSF and blood were collected at 1 hour and 2 hours post-dosing. CSF samples (0.05 mL) were collected through the intracisternal catheter. Blood samples (0.25 mL) were collected through retro-orbital sampling. These samples were kept on ice until processed for plasma. Blood samples were centrifuged at 3200 rpm for 5 minutes at approximately 5° C. within 1 hour of collection. Plasma was directly transferred to a 96-well plate tube (0.125 mL). Plug caps were placed on the tubes and the tubes frozen at approximately −70° C. and stored until analysis.
Plasma was collected and analyzed for the presence of compound.
The compound in question and the internal standard were extracted from plasma and CSF by precipitation. Samples were analyzed using liquid chromatography (LC) with tandem mass spectrometric detection (MS/MS) using electrospray ionization. The standard curve range was from 1 to 1000 ng/mL.
Kp,uu is defined as the concentration ratio of unbound drug in CSF to unbound drug in plasma. Unbound drug in plasma (or free plasma concentration) is calculated by multiplying the total plasma concentration by the unbound fraction as determined by plasma protein binding. The CSF concentration is then divided by the free plasma concentration to determine the Kp,uu. (See e.g., Di et al., J. Med. Chem., 56, 2-12 (2013)).

Another data set relates to male Long Evans rats. The data set is described as follows: Novel Object Recognition (NOR) test, MK-801-induced memory deficit. Type of data set: in vivo, rat.
Data set [2] has as its system rats. The data set is described as follows: Carrageenan - paw pressure test. The format is in vivo, rat. Particulars: internal reference Indomethacin 30 mg/kg p.o. As to the method: (§1) Paw Pressure Test. Static mechanical hyperalgesia is measured. This test requires the application of an increasing pressure on the hind paws between a flat surface and a blunt pointer. To evaluate the analgesic action of a compound, one hind paw of the animal was inflamed by an injection or injured by ligation, while the other hind paw was not injured or inflamed. The apparatus exerted a steadily increasing force on the hind paws. The reaction threshold was determined as the pressure (g) required to elicit paw withdrawal and/or vocalization. The animals were gently handled by the experimenter and static mechanical hyperalgesia were assessed two times for both hind paws.
Carrageenan. Induction: Three hours before assessment of the nociceptive threshold using the paw pressure test 100 μL of a 2% carrageenan suspension was injected into the plantar aspect of the right hind paw. The Paw Pressure test was then conducted as described above.
(§2) Testing: 120 minutes after treatment. N=4/model/test. Results are expressed for each group as a percentage of activity calculated from the mean value of the vehicle-treated animals and compared to naïve animals, control paw, or cut-off value, depending on the test.
In general terms: Carrageenan injected into the paw causes an acute inflammation.

Data set [3] deals with rats. The data set is described as follows: Kaolin - gait score. The format is in vivo, rat. Particulars: internal reference Indomethacin 10 mg/kg p.o. As to the method:
Kaolin. Induction: In rats, unilateral arthritis was induced by an intra-articular injection of a 10% kaolin suspension into the knee joint of the right hind paw under gas anesthesia (3.5% isoflurane/3 L/min). Gait score: The gait score will be evaluated 3 h 30 min after kaolin administration by:
2: intermittent raising of the paw
as §2

Data set [4] concerns Healthy rats. The data set is described as follows: Healthy rats - paw pressure test. The format is in vivo, rat. Particulars: internal reference Morphine 4 mg/kg s.c. As to the method:
as §1, §2

The test system of data set [5] is Healthy rats. The data set is described as follows: Healthy rats - tail flick test. The format is in vivo, rat. Particulars: internal reference Morphine 4 mg/kg s.c. How it is done: Tail Flick Test. A radiant heat was applied on the tail. When the rat felt discomfort, it reacted by a sudden tail movement (tail flick) which automatically stopped the stimulation and the timer for the measurement by the animal reaction time or nociceptive reaction latency (period from the beginning of the stimulation until detection of the response of the animal). A cut-off was previously fixed at 10 sec in order to prevent tissue damage.
as §2
(In general: Thermal pain tests record how soon the animal reacts.)

Data set [6] concerns rats. The data set is described as follows: Formalin test - score. The format is in vivo, rat. Particulars: internal reference Morphine 4 mg/kg s.c. As to the method: Formalin Test. 2.5% formalin solution was injected by subplantar route into the right hind paw. Scoring of pain behavior was performed in rats for 36 minutes every 3 minutes according to the following scores:
0=normal behavior of the injected hind limb to support the body
1=slight touching of the injected paw on the floor to lightly support or not support the body
2=total withdrawal of the injected paw
3=licking, biting or shaking of the injected paw.
as §2

Data set [7] has as its system rats. The data set is described as follows: Bennett model - paw pressure test. Particulars: internal reference Morphine 3 mg/kg s.c. Type of data set: in vivo, rat. As to the method: as §1
Bennett Model. Peripheral mononeuropathy was induced by loose ligation of the sciatic nerve in anesthetized rats (Xylazine 10 mg/kg i.p., ketamine 60 mg/kg i.p.) on D−14. Briefly, the common sciatic nerve was exposed at the level of the middle of the thigh by blunt dissection through the biceps femoris. Proximal to the sciatic trifurcation, four ligatures were loosely tied around it with about 1-mm spacing. […]
Testing: 120 minutes after treatment. […] Results are expressed for each group as a percentage of activity calculated from the mean value of the vehicle-treated animals and compared to naïve animals, control paw, or cut-off value, depending on the test.

The subject of data set [8] is rats. The data set is described as follows: Brennan model - electronic Von Frey test. Particulars: internal reference Morphine 4 mg/kg s.c. Type of data set: in vivo, rat.
Excerpt: Brennan Model. Surgery: Surgery was done under gas anesthesia (2.5% isoflurane/3 L/min). For all rats, the plantar aspect of the left hind paw was exposed and a 1 cm longitudinal incision was made using a surgical blade, through the skin and fascia of the plantar aspect of the foot, starting 0.5 cm from the proximal edge of the heel and extending toward the toes. The plantaris muscle was elevated and incised longitudinally whereas the insertions remained intact. After hemostasis with gentle pressure, the skin was stitched up with two sutures. After surgery, animals recovered in their cages.
Electronic Von Frey Test. Tactile allodynia was assessed using the electronic Von Frey test 24 h after surgery. The test requires the application of an increasing pressure onto the plantar aspect of the hind paws. The apparatus exerted a steady force on the hind paws. Reaction thresholds were determined as the pressure (g) required to elicit paw withdrawal. Each reaction threshold measurement was repeated three times for both hind paws with intervals of approximately 2 to 3 mins.
as §2

The structures appear in SMILES notation. pEC50: −log10 of the molar value.

As usually defined, the pEC50 is the EC50 on a negative log10 scale, so that one unit is a factor of ten.

On to `Fc1ccccc1Cc1nc(-c2nc(C(F)(F)F)n[nH]2)n2ccccc12` [Compound I-3], for which, in the data set on sGC, the pEC50 was no less than 7.00.

As to `Cc1ncc(Cc2nc(-c3nc(C(F)(F)F)n[nH]3)n3ccccc23)cn1` [Compound I-4], in data set [1], the concentration at 1 h came to 180 nM and the Kp uu at 1 h came out at 0.96.

Take `Fc1ccccc1Cc1nc(-c2nc(C(F)(F)F)n[nH]2)c2cccnn12` [Compound I-6]: in [1], the concentration at 1 h stood at 0.78 nM and the Kp uu at 1 h was less than 0.01.

`COc1ccc2c3c1O[C@H]1C[C@@H](O)C=C[C@@]31CCN(C)C2` [Galantamine, reference compound]: in the data set with male Long Evans rats (Galantamine 1 mg/kg IP + MK-801 0.1 mg/kg IP), the “Recognition Index, Mean (0 to 3 minute time bin)” value is on record as 73.33%.

For `COc1ccc2c(c1)c(CC(=O)O)c(C)n2C(=O)c1ccc(Cl)cc1` [Indomethacin, reference compound], the “% of activity vs. vehicle, carrageenan paw pressure test” value in the data set on rats [2] is listed as 100%. For the same molecule, the “% of activity vs. vehicle, kaolin gait score” value in the data set on rats [3] is given as 58%.

As for `C[C@]12N[C@H](Cc3ccccc31)c1ccccc12` [MK-801, MK-801 (Dizocilpine), reference compound], in the data set on male Long Evans rats (MK-801 0.1 mg/kg), the “Effect on recognition memory, 0-3 minute time range” value is “strong memory deficit” and the “Effect on recognition memory, 0-5 minute time range” value is “strong memory deficit”. Moreover, in the data set on male Long Evans rats (Vehicle + MK-801 0.1 mg/kg IP, Vehicle + Saline control 73.78), the “Recognition Index, Mean (0 to 3 minute time bin)” value is 56.92%.

On to `CN1CC[C@]23c4c5ccc(O)c4O[C@H]2[C@@H](O)C=C[C@H]3[C@H]1C5` [Morphine, reference compound], for which, in the data set on Healthy rats [4], the “% of activity vs. vehicle, healthy rats paw pressure test” value worked out at 69%. Moreover, the “% of activity vs. vehicle, healthy rats tail flick test” value in the data set with Healthy rats [5] was determined as 66%. In addition, in the data set on rats [6], the “% of activity vs. vehicle, formalin test score (early phase)” value came to 57% and the “% of activity vs. vehicle, formalin test score (late phase)” value worked out at 38%. In addition, in the data set on rats [7], the “% of activity vs. vehicle, Bennett model paw pressure test” value came to 191%. In addition, the “% of activity vs. vehicle, Brennan model electronic Von Frey test” value with rats [8] is on record as 88%.
